Columns and labels:
[1] = tested on: Arabidopsis thaliana cultured cells 87T; experiment: Concerted sensitivity test on herbicide and antibiotic in Arabidopsis thaliana cultured cells; type: cell-based; settings: for inhibition of the growth rate in combination with spectinomycin: both spectinomycin and herbicide, effect not observed with individual administration of the same concentration
Procedure: Arabidopsis thaliana cultured cells 87T were used in the experiment. Media comprising different concentrations of a group of herbicides and spectinomycin using a redifferentiation medium (Q. Yu. et al. Plant Physiol. 2017. 175(1). 186-193) as the base were added to each well of a 24-well plate. Specifically, a plate with varying concentrations of the group of herbicides of 0, 0.1, 1, 10, 50, and 100 μM in the direction of the X-axis of the plate and varying concentrations of an antibiotic spectinomycin of 0, 1, 10, and 100 μg/mL in the direction of the y-axis was prepared (FIG. 9A). Pinoxaden, tepraloxydim, tralkoxydim, cyhalofop butyl, and haloxyfop were used as the group of herbicides in each plate. 100 μL of cultured cells was added to each well and cultured under light-dark conditions in an artificial climate incubator. On days 3, 7, and 15 after culture, the growth status was checked to study the concerted sensitivity of a herbicide and antibiotic. • Results

Oryza sativa callus = experiment: Herbicide selection of Oryza sativa callus on redifferentiation selection medium after plasmid bombardment; type: cell-based, Oryza sativa japonica (Nipponbare); settings: callus introduced with pNC (no resistance) sensitive; redifferentiated individuals counted after about 6 weeks; tested 0.1-4.0 μM
Procedure: For the experiment, Oryza sativa japonica (Nipponbare) was used. Threshed Oryza sativa seeds were placed in a callus inducing medium, i.e., an N6D medium (Z. Shimatani et al. Nat Biol. 2017), and grown under conditions of 25° C. away from light within an artificial climate incubator to induce a primary callus. To prepare a callus plate for introducing a gene, the primary callus that had been actively growing for several weeks since induction of the callus from seeds was strained using a sterilized mesh. The refined callus was uniformly applied on filter paper placed on a callus inducing medium plate. A gene was introduced to a plate obtained by culturing the callus for 3 to 4 days within the artificial climate incubator. For selection of a transformant, a redifferentiation medium which is an MSRE medium (Z. Shimatani et al. Nat Biol. 2017) added with a suitable herbicide was used and cultured under conditions of 31.5° C. in a light-dark cycle of 12 hours within the artificial climate incubator. […]
After introduction of a gene, the plate was subjected to expansion culture under dark conditions in the artificial climate incubator for 3 to 4 days. […] The number of individuals redifferentiated from the callus clumps was counted as the selected individual count. • <Detection of Transgenesis in a Created Individual>

CN[C@@H]1[C@H](O)[C@H](NC)[C@H]2O[C@@]3(O)C(=O)C[C@@H](C)O[C@H]3O[C@@H]2[C@H]1O [spectinomycin]
colour of cultured cells (chloroplast development) ([1]; 100 μg/mL spectinomycin): Change in color to yellow | inhibition of the growth rate by spectinomycin alone ([1]; only spectinomycin, concentration range studied (0-100 μg/mL)): not inhibited

CC(Oc1ccc(Oc2ncc(C(F)(F)F)cc2Cl)cc1)C(=O)O (centres unmarked) [haloxyfop]
concentration at which a selection effect of the herbicide can be expected (Oryza sativa callus): ≥ 0.1 µM | inhibition of the growth rate in combination with spectinomycin [1]: significant inhibition of the growth rate

CCCCOC(=O)[C@@H](C)Oc1ccc(Oc2ccc(C#N)cc2F)cc1 [cyhalofop butyl]
inhibition of the growth rate by herbicide alone ([1]; herbicide alone, within the range of concentrations studied (0-100 μM)): not observed

CCO/N=C(\CC)C1=C(O)CC(c2c(C)cc(C)cc2C)CC1=O (centres unmarked) [tralkoxydim]
concentration at which a selection effect of the herbicide can be expected (Oryza sativa callus): ≥ 0.5 µM

CCc1cc(C)cc(CC)c1-c1c(OC(=O)C(C)(C)C)n2n(c1=O)CCOCC2 [pinoxaden]
inhibition of the growth rate in combination with spectinomycin [1]: significant inhibition of the growth rate | herbicide concentration at which inhibition of growth was observed ([1]; herbicide alone, tested 0-100 μM, growth checked on days 3, 7, 15): ≥ 10 µM

Source: US20230151376A1, “ORGANELLE TRANSFORMANT SCREENING METHOD” (NATIONAL UNIVERSITY CORPORATION KOBE UNIVERSITY, priority 2020, published 2023)
